# Reference: PubChem BioAssay (NCI)
# “And” between values parts separate entries of the source, which are not always exact repeats. Equal values may be shown once.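 Interpolation was linear, between the two tested concentrations surrounding the appropriate level; five concentrations were tested over 48 hours in 96-well plates. Abbreviation: GI50, concentration required for 50% inhibition of growth. TGI: total growth inhibition.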
# Assays:
# Test in all cases: DTP human tumour cell line panel, 48 h
# EKVX NSCLC = system: EKVX NSCLC
# SF-268 CNS = system: SF-268 CNS
# U251 CNS = system: U251 CNS
# SK-MEL-5 melanoma = system: SK-MEL-5 melanoma
# MALME-3M melanoma = system: MALME-3M melanoma
# KM12 colon = system: KM12 colon
# OVCAR-3 ovarian = system: OVCAR-3 ovarian
# SF-539 CNS = system: SF-539 CNS
# OVCAR-8 ovarian = system: OVCAR-8 ovarian
# SNB-75 CNS = system: SNB-75 CNS
Structure (SMILES),TGI (EKVX NSCLC) [µM],TGI (SF-268 CNS) [µM],TGI (U251 CNS) [µM],TGI (SK-MEL-5 melanoma) [µM],TGI (MALME-3M melanoma) [µM],TGI (KM12 colon) [µM],TGI (OVCAR-3 ovarian) [µM],TGI (SF-539 CNS) [µM],TGI (OVCAR-8 ovarian) [µM],TGI (SNB-75 CNS) [µM],GI50 (EKVX NSCLC) [µM],GI50 (SF-268 CNS) [µM],GI50 (U251 CNS),GI50 (SK-MEL-5 melanoma) [µM],GI50 (MALME-3M melanoma) [µM],GI50 (KM12 colon),GI50 (OVCAR-3 ovarian) [µM],GI50 (SF-539 CNS) [µM],GI50 (OVCAR-8 ovarian) [µM],GI50 (SNB-75 CNS)
O=C1C=C2CCC[C@H]3OC(=O)C[C@@]23CC1,> 100,> 100,> 100,> 100,> 100,> 100,> 100,> 100,–,–,–,–,–,–,–,–,–,–,–,–
Cc1c(OCc2ccccc2)c(=O)ccn1CCc1c[nH]c2ccccc12,> 100,64.1,> 100,35.3,88.3,> 100,51.4,> 100,> 100,–,–,–,–,–,–,–,–,–,–,–
CCOC(=O)c1c(C)nc2c(c1-c1cn(-c3ccccc3)nc1-c1ccccc1)C(=O)c1ccccc1-2,> 100,> 100,> 100,> 100,> 100,> 100,> 100,–,> 100,> 100,–,–,–,–,–,–,–,–,–,–
CC(C)(O)C1CC[C@]2(C)[C@H]3CC[C@@H]4[C@@]5(C)CCCC(C)(C)[C@@H]5CC[C@@]4(C)[C@]3(C)CC[C@@H]12 (some centres not stated),> 100,> 100,> 100,> 100,> 100,> 100,> 100,> 100,> 100,–,–,–,–,–,–,–,–,–,–,–
COc1ccccc1N=Nc1c(O)c(S(=O)(=O)O)cc2cc(S(=O)(=O)O)ccc12,> 100,> 100,> 100,> 100,> 100,> 100,> 100,–,> 100,> 100,–,–,–,–,–,–,–,–,–,–
CN1N=C(c2ccncc2)OC1c1cccc(C(F)(F)F)c1 (configuration not stated),> 100,> 100,> 100,> 100,–,> 100,> 100,65.8,> 100,87.3,–,–,–,–,–,–,–,–,–,–
O=C(O)CC[P+](c1ccccc1)(c1ccccc1)c1ccccc1,> 100,> 100,> 100,42.2,> 100,> 100,56.5,–,> 100,> 100,–,–,–,–,–,–,–,–,–,–
O=C(Sc1c(-c2ccccc2)c(=O)n(-c2ccccc2)c(=S)n1-c1ccccc1)c1cccs1,> 100,> 100,> 100,95.1,> 100,> 100,> 100,–,> 100,> 100,–,–,–,–,–,–,–,–,–,–
CC1(C)CC2(C)CC1CC2(O)c1ccccc1 (configuration not stated),–,> 100,> 100,> 100,> 100,> 100,> 100,> 100,> 100,> 100,–,–,–,–,–,–,–,–,–,–
CC(=O)NNc1nc(C)c(C(=O)NNC(=O)C(=O)Nc2cccc(C(C)=O)c2)s1,> 100,54,90.4,> 100,–,57.7,–,39.8,39.4,38.9,–,–,–,–,–,–,–,–,–,–
CS(=O)(=O)c1nc(-c2cc3c(c(S(C)(=O)=O)n2)CCC3)cc2c1CCCC2,> 100,24.4,> 100,> 100,–,> 100,> 100,> 100,57.9,23.4,–,–,–,–,–,–,–,–,–,–
C=C[C@@]1(O)CCCC[C@@H]1CC(Sc1ccccc1)Sc1ccccc1,31.1,29,31.9,30.8,28,37.9,–,–,34.1,27.8,–,–,–,–,–,–,–,–,–,–
Cc1ccc(S(=O)(=O)NC(=O)NC(CCCCN=C(N)N)C(=O)O)cc1 (configuration not stated),–,> 100,> 100,> 100,> 100,> 100,–,> 100,> 100,> 100,–,–,–,–,–,–,–,–,–,–
N#C/C(=C\c1ccc([N+](=O)[O-])s1)c1nc2cc(Cl)ccc2s1,5.82,> 100,3.02,0.955,0.541,3.84,3.23,2.79,69.2,–,1.63,2.51,0.599 µM,0.314,0.202,1.44 µM,1.42,1.21,0.555,–
CC(C)OP(=O)(OC(C)C)C1=NN(c2ccc([N+](=O)[O-])cc2)C(P(=O)(OC(C)C)OC(C)C)=NN1c1ccc([N+](=O)[O-])cc1,> 100,> 100,> 100,> 100,> 100,> 100,> 100,> 100,> 100,–,–,–,–,–,–,–,–,–,–,–
O=C1CC(C(OCc2ccccc2)C(OCc2ccccc2)C(COCc2ccccc2)OCc2ccccc2)CC(=O)N1 (configuration not stated),> 100,> 100,> 100,> 100,> 100,> 100,–,> 100,> 100,> 100,–,–,> 100 µM and 40 µM,–,–,> 100 µM and 37.9 µM,–,–,–,29.7 µM and > 75 µM
